Earlier results in patent US11766390B2, “Method for dyeing keratinous material, comprising the use of an organosilicon compound, a colored effect pigment and a film-forming polymer II” (Henkel AG & Co. KGaA, priority 2019, dated 2023).

Settings: for solubility in water: 25° C.

| SMILES | solubility in water (in words) (at 25° C.) | solubility in water |
| --- | --- | --- |
| O=C([O-])C1=NN(c2ccc(S(=O)(=O)[O-])cc2)C(=O)C1N=Nc1ccc(S(=O)(=O)[O-])cc1.[Na+].[Na+].[Na+] (centres unmarked) [Acid Yellow 23, trisodium salt of 4,5-dihydro-5-oxo-1-(4-sulfophenyl)-4-((4-sulfophenyl)azo)-1H-pyrazole-3-carboxylic acid] | highly soluble | – |
| O=C([O-])c1c(Cl)c(Cl)c(Cl)c(Cl)c1-c1c2c(Br)cc(=O)c(Br)c-2oc2c(Br)c(O)cc(Br)c12.O=C([O-])c1c(Cl)c(Cl)c(Cl)c(Cl)c1-c1c2c(Br)cc(=O)c(Br)c-2oc2c(Br)c(O)cc(Br)c12.[Na+].[Na+] [Acid Red 92, disodium salt of 3,4,5,6-tetrachloro-2-(1,4,5,8-tetrabromo-6-hydroxy-3-oxoxanthen-9-yl)benzoic acid] | – | greater than 10 g/L |
| O=S(=O)([O-])c1ccc(N=Nc2c(O)ccc3ccccc23)cc1.[Na+] [Acid Orange 7, sodium salt of 4-[(2-hydroxy-1-naphthyl)azo]benzene sulphonate] | – | more than 7 g/L |
| CCN(Cc1cccc(S(=O)(=O)[O-])c1)c1ccc(C(=C2C=CC(=[N+](CC)Cc3cccc(S(=O)(=O)[O-])c3)C=C2)c2ccccc2S(=O)(=O)[O-])cc1.[Na+].[Na+] [Acid Blue 9] | – | more than 20 % by weight |
| Nc1cc(S(=O)(=O)[O-])cc2cc(S(=O)(=O)[O-])c(N=Nc3ccccc3)c(O)c12.[Na+].[Na+] [Acid Red 33, disodium salt of 5-amino-4-hydroxy-3-(phenylazo)-naphthalene-2,7-disulphonate] | – | 2500 µg/mL |
